Measured values published in patent US20240116985A1, “STAPLED PEPTIDES AND METHODS THEREOF” (priority 2020, published 2024).
Values joined by “and” are separate entries in the source; they are usually repeats but may differ in a detail not shown here. Equal values may be shown once. Read-outs that look alike come from different tables or passages of the source.

What was measured:
CHI Log D procedure = format: physicochemical; details: for CHI Log D / logD: pH 7.4; for chromatographic logD: pH 7.4, CHI Log D
[1] = system: TCF/LEF luciferase Reporter in DLD1 cells; assay: TCF reporter assay (DLD1 TCF/LEF luciferase reporter, Bright-Glo); format: cell-based; details: for DLD1 TCF c2 BrightGlo % Inhibition: replicates
Method in brief: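 Readouts: Bright-Glo luciferase for reporter signal and CellTiter-Glo for cell viability, with absolute IC50 derived. The reporter clone came from lentiviral TCF/LEF-luciferase transduction of DLD1 cells, seeded 5000 cells/well in RPMI with 4% FBS and exposed overnight to serially diluted compounds.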

[2] = target: T1, full-length beta-Catenin (Uniprot ID P35222) (Homo sapiens, UniProt P35222); assay: Fluorescence polarization IC50 (beta-catenin / 5FAM-TCF4 10-53 competition); format: binding
T1 construct: 10 nM full-length beta-Catenin (Uniprot ID P35222)
T1 sequence (P35222 1-781): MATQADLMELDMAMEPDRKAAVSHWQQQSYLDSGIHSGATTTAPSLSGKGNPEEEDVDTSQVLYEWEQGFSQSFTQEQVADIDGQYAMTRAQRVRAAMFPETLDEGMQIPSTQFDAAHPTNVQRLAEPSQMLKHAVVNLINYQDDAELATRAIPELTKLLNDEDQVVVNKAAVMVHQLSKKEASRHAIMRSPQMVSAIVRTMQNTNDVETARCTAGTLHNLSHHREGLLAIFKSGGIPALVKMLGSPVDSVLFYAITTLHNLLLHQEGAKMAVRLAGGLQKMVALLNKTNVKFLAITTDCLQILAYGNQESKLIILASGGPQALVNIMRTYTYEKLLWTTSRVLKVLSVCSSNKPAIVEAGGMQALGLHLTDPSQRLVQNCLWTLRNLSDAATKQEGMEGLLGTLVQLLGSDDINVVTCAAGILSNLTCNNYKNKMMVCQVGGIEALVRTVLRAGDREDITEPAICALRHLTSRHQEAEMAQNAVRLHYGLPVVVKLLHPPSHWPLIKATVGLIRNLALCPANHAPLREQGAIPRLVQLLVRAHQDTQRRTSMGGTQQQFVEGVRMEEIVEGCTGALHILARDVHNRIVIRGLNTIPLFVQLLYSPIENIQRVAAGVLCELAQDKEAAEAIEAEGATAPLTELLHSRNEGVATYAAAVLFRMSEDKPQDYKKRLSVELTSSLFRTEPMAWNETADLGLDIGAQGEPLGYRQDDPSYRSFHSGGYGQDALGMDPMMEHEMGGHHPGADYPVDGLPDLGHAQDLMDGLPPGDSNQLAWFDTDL

[3] = target: T2, beta-catenin/TCF4 engagement (Homo sapiens, UniProt P35222); assay: Nano-BRET target engagement assay (B-cat-Halo & TCF4-Luc in HEK293 cells); format: cell-based
T2 construct: expressed in transfected cells; host or cells: HEK293
T2 sequence (P35222 1-781): T1 sequence (P35222 1-781)

[4] = Abs IC50, read-out: DLD1 reporter assay Abs IC50
[5] = absolute IC50, read-out: DLD1 reporter assay Abs IC50
[6] = absolute IC50, read-out: NanoBRET Abs IC50
[7] = first dose = 20 uM (plate map), 20 µM
[8] = read-out: DLD1 4% Abs IC50, DLD1 4%
[9] = third dose = 5 uM (plate map), 5 µM
[10] = fluorescence polarization, read-out: beta-Catenin FP IC50
[11] = read-out: DLD1 4% Abs IC50, DLD1 reporter assay, 4%, absolute IC50

CC(=O)N1CCC[C@]12CC=CCCCC1(CCCC=CCCCOC(=O)N3CC[C@@](C(=O)N[C@@H](Cc4ccsc4)C(=O)N[C@@H](Cc4csc5ccccc45)C(=O)N[C@@H](CCC(N)=O)C(N)=O)(C3)NC(=O)[C@H](CC(N)=O)NC(=O)[C@H](Cc3ccccc3)NC(=O)[C@H](C)NC(=O)[C@H](C)NC(=O)[C@H](CC(=O)O)NC(=O)[C@H](CC(=O)O)NC1=O)NC(=O)[C@H](CC(C)(C)C)NC(=O)[C@H](CC(=O)O)NC2=O (stereo partly drawn) [I-686, Ac-PL3-Asp-Npg-B5-Asp-Asp-Ala-Ala-Phe-Asn-PyrS2-3Thi-BztA-Gln-NH2]
CHI Log D (CHI Log D procedure): 1.997 | logD (CHI Log D procedure): 2.0 | IC50 [1, 4]: 5.6 µM

CC(=O)N1CCC[C@]12CC=CCCCC1(CCCC=CCCCOC(=O)N3CC[C@@](C(=O)N[C@@H](Cc4ccccc4Cl)C(=O)N[C@@H](Cc4csc5ccccc45)C(=O)N[C@@H](CCC(N)=O)C(N)=O)(C3)NC(=O)[C@H](CC(N)=O)NC(=O)[C@H](Cc3ccccc3)NC(=O)[C@H](CC(C)C)NC(=O)[C@H](C)NC(=O)[C@H](CN(CC(=O)O)CC(F)(F)F)NC(=O)[C@H](CC(=O)O)NC1=O)NC(=O)[C@H](CC(C)(C)C)NC(=O)[C@H](CC(=O)O)NC2=O (stereo partly drawn) [I-1002, Ac-PL3-Asp-Npg-B5-Asp-TfeGA-Ala-Leu-Phe-Asn-PyrS2-2C1F-BztA-Gln-NH2]
IC50 ([2]; read-out: beta-Catenin FP IC50): 0.009 µM | chromatographic logD (CHI Log D procedure): 2.6 | IC50 [1, 5]: > 20 µM | IC50 [3, 6]: 29.8 µM

CC(=O)N1CCC[C@]12CC=CCCCC1(CCCC=CCCCOC(=O)N3CC[C@@](C(=O)N[C@@H](Cc4ccsc4)C(=O)N[C@@H](Cc4csc5ccccc45)C(=O)N[C@@H](CCC(N)=O)C(N)=O)(C3)NC(=O)[C@H](CC(N)=O)NC(=O)[C@H](Cc3ccccc3)NC(=O)[C@H](C)NC(=O)[C@H](C)NC(=O)[C@H](CN(CC(=O)O)CC(F)(F)F)NC(=O)[C@H](CC(=O)O)NC1=O)NC(=O)[C@H](CC(C)(C)C)NC(=O)[C@H](CC(=O)O)NC2=O (single isomer, unassigned) [I-762, Ac-PL3-Asp-Npg-B5-Asp-TfeGA-Ala-Ala-Phe-Asn-PyrS2-3Thi-BztA-Gln-NH2]
IC50 ([2]; read-out: FP EC50): 0.006 µM | IC50 ([2]; read-out: bCat FP IC50): 0.006 µM | IC50 ([2]; read-out: beta-Catenin FP IC50): 0.005 µM | CHI Log D (CHI Log D procedure): 2.247 | logD (CHI Log D procedure): 2.2 | IC50 [1, 4]: 6 µM | IC50 ([1]; Peptide + ST-Protein (SAINT-Protein lipid), read-out: TCF Reporter Assay Abs IC50): 0.3 µM | IC50 ([1]; Peptide only, read-out: TCF Reporter Assay Abs IC50): 7 µM | DLD1 TCF c2 BrightGlo % Inhibition [1, 7]: 75.7% and 81.9% and 78.7% | IC50 [1, 8]: 7.9 µM | DLD1 TCF c2 BrightGlo % Inhibition ([1]; 0.625 µM): 14.5% and 18.6% and 9.3% | DLD1 TCF c2 BrightGlo % Inhibition ([1]; 1.25 µM): 12.9% and 16.9% and 5.5% | DLD1 TCF c2 BrightGlo % Inhibition ([1]; 2.5 µM): 12.9% and 17.4% and 11.9% | DLD1 TCF c2 BrightGlo % Inhibition ([1]; 10 µM): 56.8% and 70.2% and 65.6% | DLD1 TCF c2 BrightGlo % Inhibition [1, 9]: 28.2% and 45.2% and 44.6% | IC50 ([3]; Abs IC50, read-out: NanoBRET Abs IC50): 10 µM | IC50 ([3]; Peptide + ST-Protein (SAINT-Protein lipid), read-out: Nano-BRET Abs IC50): 0.7 µM | IC50 ([3]; Peptide only, read-out: Nano-BRET Abs IC50): 11 µM | IC50 ([3]; read-out: NanoBRET Abs IC50): 14 µM

CC(=O)N1CCC[C@]12CC=CCCCC1(CCCC=CCCCOC(=O)N3CC[C@@](C(=O)N[C@@H](Cc4ccccc4C(F)(F)F)C(=O)N[C@@H](Cc4csc5ccccc45)C(=O)N[C@@H](CCC(N)=O)C(N)=O)(C3)NC(=O)[C@H](CC(N)=O)NC(=O)[C@H](Cc3ccccc3)NC(=O)[C@H](C)NC(=O)[C@H](C)NC(=O)[C@H](CN(CC(=O)O)CC(F)(F)F)NC(=O)[C@H](CC(=O)O)NC1=O)NC(=O)[C@H](CC(C)(C)C)NC(=O)[C@H](CC(=O)O)NC2=O (stereo partly drawn) [I-927, Ac-PL3-Asp-Npg-B5-Asp-TfeGA-Ala-Ala-Phe-Asn-PyrS2-2F3MeF-BztA-Gln-NH2]
IC50 ([2]; fluorescence polarization, beta-catenin, read-out: FP EC50): 0.011 µM | IC50 ([2]; read-out: beta-Catenin FP IC50): 0.011 µM | CHI Log D (CHI Log D procedure): 2.313 | IC50 [1, 5]: 4.2 µM | DLD1 TCF c2 BrightGlo % Inhibition [1, 7]: 77.1% and 77.4% and 80.3% | DLD1 TCF c2 BrightGlo % Inhibition ([1]; 0.625 µM): 3.5% and 8.0% and 14.3% | DLD1 TCF c2 BrightGlo % Inhibition ([1]; 1.25 µM): 8.7% and 15.1% and 18.6% | DLD1 TCF c2 BrightGlo % Inhibition ([1]; 2.5 µM): 23.9% and 33.7% and 42.0% | DLD1 TCF c2 BrightGlo % Inhibition ([1]; 10 µM): 68.0% and 70.2% and 72.9% | DLD1 TCF c2 BrightGlo % Inhibition [1, 9]: 53.1% and 55.2% and 60.1% | IC50 [3, 6]: 8.2 µM | IC50 ([3]; read-out: NanoBRET Abs IC50): 8.2 µM

CC(=O)N1CCC[C@]12CC=CCCCC1(CCCC=CCCCOC(=O)N3CC[C@@](C(=O)N[C@@H](Cc4ccccc4Br)C(=O)N[C@@H](Cc4csc5ccccc45)C(=O)N[C@@H](CCC(N)=O)C(N)=O)(C3)NC(=O)[C@H](CC(N)=O)NC(=O)[C@H](Cc3ccccc3)NC(=O)[C@H](C)NC(=O)[C@H](C)NC(=O)[C@H](CN(CC(=O)O)CC(F)(F)F)NC(=O)[C@H](CC(=O)O)NC1=O)NC(=O)[C@H](CC(C)(C)C)NC(=O)[C@H](CC(=O)O)NC2=O (stereo partly drawn) [I-924, Ac-PL3-Asp-Npg-B5-Asp-TfeGA-Ala-Ala-Phe-Asn-PyrS2-2BrF-BztA-Gln-NH2]
IC50 ([2]; read-out: beta-Catenin FP IC50): 0.007 µM | chromatographic logD (CHI Log D procedure): 2.28 | IC50 [1, 5]: 4.5 µM | IC50 [3, 6]: 3.3 µM

CC(=O)N1CCC[C@]12CC=CCCCC1(CCCC=CCCCOC(=O)N3CC[C@@](C(=O)N[C@@H](Cc4ccsc4)C(=O)N[C@@H](Cc4csc5ccccc45)C(=O)N[C@@H](CCC(N)=O)C(N)=O)(C3)NC(=O)[C@H](Cc3ccccc3)NC(=O)[C@H](Cc3ccccc3)NC(=O)[C@H](C)NC(=O)[C@H](C)NC(=O)[C@H](Cc3cccc(C(=O)O)c3)NC(=O)[C@H](CC(=O)O)NC1=O)NC(=O)[C@H](CC(C)(C)C)NC(=O)[C@H](CC(=O)O)NC2=O (stereo partly drawn) [I-852, Ac-PL3-Asp-Npg-B5-Asp-3COOHF-Ala-Ala-Phe-Phe-PyrS2-3Thi-BztA-Gln-NH2]
IC50 ([2]; read-out: beta-Catenin FP IC50): 0.007 µM | chromatographic logD (CHI Log D procedure): 2.4 | IC50 [1, 8]: 1.4 µM | IC50 [3, 6]: 2.8 µM

CC(=O)N1CCC[C@]12CC=CCCCC1(CCCC=CCCCOC(=O)N3CC[C@@](C(=O)N[C@@H](Cc4ccccc4C(F)(F)F)C(=O)N[C@@H](Cc4csc5ccccc45)C(=O)N[C@@H](CCC(N)=O)C(=O)N[C@@H](CC(C)C)C(=O)N[C@@H](CO)C(N)=O)(C3)NC(=O)[C@H](CC(C)C)NC(=O)[C@H](Cc3ccccc3)NC(=O)[C@H](C)NC(=O)[C@H](C)NC(=O)[C@H](Cc3cccc(C(=O)O)c3)NC(=O)[C@H](CC(=O)O)NC1=O)NC(=O)[C@H](CC(C)(C)C)NC(=O)[C@H](CC(=O)O)NC2=O (stereo partly drawn) [I-2384, Ac-PL3-Asp-Npg-B5-Asp-3COOHF-Ala-Ala-Phe-Leu-PyrS2-2F3MeF-BztA-Gln-Leu-Ser-NH2]
IC50 [2, 10]: 0.005 µM | IC50 ([1]; read-out: DLD1 4% Abs IC50, DLD1 reporter, 4%, absolute IC50): 1.1 µM | IC50 [3, 6]: 4.6 µM

CC(=O)N1CCC[C@]12CC=CCCCC1(CCCC=CCCCOC(=O)N3CC[C@@](C(=O)N[C@@H](Cc4ccccc4C(F)(F)F)C(=O)N[C@@H](Cc4csc5ccccc45)C(=O)N[C@@H](CC(=O)N4CCN(C)CC4)C(N)=O)(C3)NC(=O)[C@H](CC(C)C)NC(=O)[C@H](Cc3ccccc3)NC(=O)[C@H](C)NC(=O)[C@H](C)NC(=O)[C@H](Cc3cccc(C(=O)O)c3)NC(=O)[C@H](CC(=O)O)NC1=O)NC(=O)[C@H](CC(C)(C)C)NC(=O)[C@H](CC(=O)O)NC2=O (stereo partly drawn) [I-1612, Ac-PL3-Asp-Npg-B5-Asp-3COOHF-Ala-Ala-Phe-Leu-PyrS2-2F3MeF-BztA-MePpzAsn-NH2]
IC50 [2, 10]: 0.01 µM | IC50 [1, 11]: 4 µM | IC50 [3, 6]: 5.3 µM

CC(=O)N1CCC[C@]12CC=CCCCC1(CCCC=CCCCOC(=O)N3CC[C@@](C(=O)N[C@@H](Cc4ccsc4)C(=O)N[C@@H](Cc4csc5ccccc45)C(=O)N[C@H](C(N)=O)[C@@H](C)O)(C3)NC(=O)[C@H](CC(C)C)NC(=O)[C@H](Cc3ccccc3)NC(=O)[C@H](C)NC(=O)[C@H](C)NC(=O)[C@H](CN(CC(=O)O)CC(F)(F)F)NC(=O)[C@H](CC(=O)O)NC1=O)NC(=O)[C@H](CC(C)(C)C)NC(=O)[C@H](CC(=O)O)NC2=O (stereo partly drawn) [I-1706, Ac-PL3-Asp-Npg-B5-Asp-TfeGA-Ala-Ala-Phe-Leu-PyrS2-3Thi-BztA-Thr-NH2]
IC50 [2, 10]: 0.024 µM | IC50 [1, 11]: 2.7 µM | IC50 [3, 6]: 4.8 µM
